{
  "source": "patent US20250263404A1",
  "about": "“AMINOPYRIDINES AS ACTIVATORS OF PI3 KINASE” (UCL Business Ltd, priority 2021, published 2025)",
  "key": {"[1]": {"target": "T1, PI3Kδ (Homo sapiens, UniProt O00329)", "T1 construct": "Full-length p110β/p85α and p110δ/p85α were cloned and expressed in a similar manner; Strep-tag followed by TEV protease site (N, cleaved yes); made in house; host or cells: Spodoptera frugiperda Sf9 (plasmids OP833 and OP809)", "T1 sequence (O00329 whole entry, species assumed)": "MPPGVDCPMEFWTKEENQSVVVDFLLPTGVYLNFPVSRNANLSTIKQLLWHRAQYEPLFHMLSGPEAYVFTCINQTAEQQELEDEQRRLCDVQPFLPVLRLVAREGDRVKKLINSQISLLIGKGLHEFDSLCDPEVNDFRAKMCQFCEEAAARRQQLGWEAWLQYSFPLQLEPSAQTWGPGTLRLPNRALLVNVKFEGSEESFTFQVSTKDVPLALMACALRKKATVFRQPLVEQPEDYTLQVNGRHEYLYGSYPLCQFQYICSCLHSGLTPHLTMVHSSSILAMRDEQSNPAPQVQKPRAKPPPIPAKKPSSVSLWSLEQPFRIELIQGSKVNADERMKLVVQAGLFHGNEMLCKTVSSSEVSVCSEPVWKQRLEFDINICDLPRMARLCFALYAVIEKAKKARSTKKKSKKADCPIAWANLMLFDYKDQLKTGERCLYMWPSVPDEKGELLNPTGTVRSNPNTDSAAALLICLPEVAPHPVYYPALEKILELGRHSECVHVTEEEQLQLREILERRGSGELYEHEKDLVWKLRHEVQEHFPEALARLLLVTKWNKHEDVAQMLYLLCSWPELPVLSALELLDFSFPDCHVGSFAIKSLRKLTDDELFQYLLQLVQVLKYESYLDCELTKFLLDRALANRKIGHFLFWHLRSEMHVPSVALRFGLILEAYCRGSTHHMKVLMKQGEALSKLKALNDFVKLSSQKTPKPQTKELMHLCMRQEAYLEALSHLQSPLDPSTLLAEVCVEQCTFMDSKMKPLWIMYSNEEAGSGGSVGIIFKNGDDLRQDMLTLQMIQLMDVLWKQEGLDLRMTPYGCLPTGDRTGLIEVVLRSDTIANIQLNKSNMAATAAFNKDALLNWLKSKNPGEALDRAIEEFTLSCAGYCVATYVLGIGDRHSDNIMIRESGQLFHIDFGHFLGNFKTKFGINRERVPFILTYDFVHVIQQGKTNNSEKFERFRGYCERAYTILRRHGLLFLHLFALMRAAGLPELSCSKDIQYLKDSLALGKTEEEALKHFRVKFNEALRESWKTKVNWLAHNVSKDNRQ", "T1 sequence (P27986 whole entry partner, species assumed)": "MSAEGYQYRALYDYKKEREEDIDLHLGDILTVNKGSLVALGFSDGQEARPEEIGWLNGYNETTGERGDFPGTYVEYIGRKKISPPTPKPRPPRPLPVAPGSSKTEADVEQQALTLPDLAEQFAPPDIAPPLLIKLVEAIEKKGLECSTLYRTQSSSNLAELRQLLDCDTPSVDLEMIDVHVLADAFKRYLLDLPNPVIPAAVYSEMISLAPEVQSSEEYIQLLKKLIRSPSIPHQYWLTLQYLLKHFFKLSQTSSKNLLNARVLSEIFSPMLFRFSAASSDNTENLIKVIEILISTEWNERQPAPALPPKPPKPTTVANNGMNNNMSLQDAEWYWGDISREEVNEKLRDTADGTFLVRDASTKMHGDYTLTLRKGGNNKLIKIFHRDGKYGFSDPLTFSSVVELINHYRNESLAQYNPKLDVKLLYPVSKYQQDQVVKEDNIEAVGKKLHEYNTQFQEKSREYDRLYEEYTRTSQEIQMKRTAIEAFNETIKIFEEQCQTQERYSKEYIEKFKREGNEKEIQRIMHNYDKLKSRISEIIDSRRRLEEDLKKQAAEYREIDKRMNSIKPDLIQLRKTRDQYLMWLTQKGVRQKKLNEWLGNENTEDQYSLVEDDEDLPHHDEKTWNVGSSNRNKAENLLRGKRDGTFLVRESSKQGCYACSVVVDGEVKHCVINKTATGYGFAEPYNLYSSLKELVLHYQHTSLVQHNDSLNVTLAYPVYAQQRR", "assay": "ADP-Glo in vitro lipid kinase assay, PI3Kδ", "assay_type": "biochemical", "method": "The effect of 1938 on the in vitro lipid kinase activity of p85α in complex with p110α, p110β or p110δ (further referred to as PI3Kα, PI3Kβ and PI3Kδ) was tested. As a positive control, a bis-phosphorylated phosphopeptide (a PDGF-receptor-derived peptide phosphorylated on Tyr-740 and Tyr-751, hereafter referred to as pY peptide) was used to mimic engagement of the p85α SH2 domains with tyrosine-phosphorylated peptides in membrane-bound receptors and adaptor proteins, known to activate the PI3Kα complex.\nKinase reactions were performed with ADP-Glo kinase assay kit (Promega Corporation). The enzyme, substrate and compounds were diluted in reaction buffer (20 mM HEPES, 50 mM NaCl, 50 mM KCl, 3 mM MgCl2, 1 mM EGTA, 1 mM TCEP, pH 7.4). Final concentrations of PI3Kα and PI3Kδ used were 25 nM and 50 nM for PI3Kβ. […]\nFor compound profiling, the reaction mixture contained 2 μl PI3K enzyme, 2 μl compound and/or pY and 2 μl of liposome substrate mixed with ATP. […] Luminescence was read using a Sense (Hidex) plate reader. […]\nFor characterisation of the effects of 1938 on in vitro PI3K enzymology, all reactions were performed at room temperature with 384 white-polystyrene plates (Corning #3574). […] For enzyme kinetic calculations, data was expressed as velocity (pmol of ADP generated/sec). […]"}, "[2]": {"tested_on": "mice", "assay": "In vivo model of ischaemia reperfusion injury in mice", "design": "species or system mouse", "settings": "10 mg/kg via jugular vein", "method": "Male C57/BL6 mice weighing 25-30 g were used throughout. Animals received humane care in accordance with the United Kingdom Home Office Guide on the Operation of Animal (Scientific Procedures) Act 1986, Project Licence PPL70/15358.\nAnimals were anaesthetised with intraperitoneal (i.p.) sodium pentobarbital at a dose of 100 mg/kg. The mice were intubated by tracheotomy and ventilated with room air using a small animal ventilator (MinVent, Type 845, Hugo Sachs Elektronik, Harvard Apparatus). The mice were then placed on a heating pad and the rectal temperature monitored and maintained at ˜37° C. using a temperature controller. During the experiments, both ECG and heart rate were continuously recorded using a PowerLab (Adinstrument, USA). […]\nAfter 120 min reperfusion, the chest was re-opened, the heart was removed and cannulated via the thoracic aorta, and blood within the heart was washed out with saline. […] The total area of myocardium, the non-ischaemic area (which is stained with Evans blue), and the infarct area (i.e. the white area) of each slice were measured using Image-J software. The “area at risk” was calculated by subtraction of the non-ischaemic area (blue area) from the whole slice area and expressed as “percentage of the left ventricle”, and “infarct size” calculated as infarct area as a percentage of the area at risk. […]"}},
  "data": [
    {"smiles": "CCN1CCN(c2ccc(Nc3cc(Nc4cccc5c4N(C(C)=O)CC5)ccn3)cc2)CC1", "note": "[Example 1938]", "values": [
      {"measurement": "effect on in vitro lipid kinase activity of PI3Kδ", "setting": "[1]", "value": "not PI3Kβ or PI3Kδ"},
      {"measurement": "pAKT^S473 levels in the hearts of mice", "setting": "[2]", "value": "corresponding increase in pAKT^S473 levels"},
      {"measurement": "cardioprotection in mice", "setting": "[2]; 15 min prior to reperfusion", "value": "significant cardioprotection"}
    ]}
  ]
}
